The source of these data is a melting point compilation (Tetko et al.).

What is called melting point is the temperature, or range, at which the solid turns liquid.

With `O=C(O)c1csc(C2CC2)n1`, the melting point was in the range of 123 to 125 °C.

`Cc1cc(C(=O)O)nn1-c1ccccc1` displayed a melting point of 182 to 184 °C.

In turn, `CCOC(=O)Nc1ccc(O)cc1` showed a melting point of 124 to 126 °C.

`CCC1Nc2ccc(C(=O)O)cc2NC1=O` (stereo unspecified) yielded a melting point of 250 to 252 °C.

The molecule `COc1cc(C(=O)O)ccc1OCc1ccc(Br)s1` yielded a melting point of 179 to 181 °C.

In turn, `CC(C)(C)C(=O)N1CCOC(C(=O)O)C1` (stereo unspecified) registered a melting point of 148 to 150 °C.

`O=c1[nH]c(Cl)nc2c1cnn2-c1ccccc1` returned a melting point of 276 to 278 °C.

In turn, `Nc1cccc(CNC(=O)Nc2ccccc2Cl)c1` returned a melting point of 177 to 179 °C.

Regarding `CC(C)c1sc(N)nc1-c1ccccc1`, the melting point lay in the range of 231 to 233 °C.

`COc1ccc(C(N)CC(=O)O)cc1` (stereo unspecified) registered a melting point of 237 to 239 °C.

In turn, `Cc1cccc(-c2nc(C(=O)O)c(C)[nH]2)c1` came in with a melting point of 149 to 151 °C.

Turning to `CSc1ccc(NC(=O)C(C)Cl)cc1` (stereo unspecified), the melting point is 129 to 131 °C.

Molecule `O=Cc1ccc(-c2cccnc2)o1` returned a melting point of 104 to 106 °C.

`O=C(O)Cc1csc(-c2ncccn2)n1` yielded a melting point of 173 to 175 °C.

The molecule `NNc1c(F)cc(C(=O)NC2CC2)cc1F` gave a melting point of 204 to 206 °C.

`Nc1cc(F)c(N2CCCCC2)c(F)c1` showed a melting point of 70 to 72 °C.

`COC(=O)N(C)c1ccccc1C(=O)O` displayed a melting point of 138 to 140 °C.

`Cn1nc(SCC(=O)O)c(=O)n(C)c1=O` yielded a melting point of 185 to 187 °C.

Turning to `O=C(O)Cn1c(=O)[nH]c2ccccc2c1=O`, the melting point fell in the range of 295 to 297 °C.

For the molecule `Cc1ccc2nc(-c3ccc(N4C(=O)C=CC4=O)cc3)sc2c1`, the melting point fell in the range of 259 to 261 °C.

Consider `CCOC(=O)/C(C#N)=C/Nc1cc(Cl)ccc1OC`, for which the melting point lay in the range of 132 to 134 °C.

For `CC(=O)Nc1cc(F)ccc1-c1csc(N)n1`, the melting point was 127 to 129 °C.

In turn, `O=C(O)C1CC1c1c(F)cccc1F` (stereo unspecified) had a melting point of 89 to 91 °C.

Molecule `O=C(CCc1ccccc1)NC1CCN(C(=O)CCl)CC1` came in with a melting point of 144 to 146 °C.

In turn, `CN(C)S(=O)(=O)c1cc(N)ccc1Cl` registered a melting point of 125 to 129 °C.

`O=C(O)C1(c2ccc(Br)cc2)CCCCC1`: the melting point lay in the range of 179 to 181 °C.

Consider `CCOC(=O)c1c(C)[nH]c(C(=O)O)c1C`, for which the melting point lay within 204 to 206 °C.

In turn, `CCc1ccc(-n2nc(C(=O)O)c3c2CCC3)cc1` yielded a melting point of 183 to 185 °C.

`CCCNc1ccc(Cl)cc1N` came in with a melting point of 62 to 64 °C.

For `O=C(O)c1cccc(NS(=O)(=O)c2cc(Cl)ccc2Cl)c1`, the melting point was in the range of 217 to 219 °C.

`CN1CCN(S(=O)(=O)c2cccnc2NN)CC1` yielded a melting point of 109 to 111 °C.

Take `Cc1sc(NC(=O)CCl)nc1-c1ccc(Cl)cc1`: the melting point lay within 176 to 178 °C.

In turn, `Cc1nc2ccccc2n1CC(=O)NN` came in with a melting point of 233 to 235 °C.

Consider `O=Cc1cccc(OCC(F)(F)F)c1`, for which the melting point fell in the range of 29 to 31 °C.

In turn, `CCOc1cc(N)c(Br)cc1OCC` displayed a melting point of 50 to 52 °C.

In turn, `NC(Cc1ccco1)C(=O)O` (stereo unspecified) showed a melting point of 179 to 181 °C.

`CCCC(NC(N)=O)C(=O)O` (stereo unspecified) returned a melting point of 170 to 172 °C.

`NC(=O)c1cccnc1N1CCNCC1`: the melting point was in the range of 145 to 147 °C.

With `O=S(=O)(Cl)c1cnc2ccsc2c1`, the melting point is 129 to 131 °C.

In turn, `CC1C(=O)NCCN1C(=O)c1ccco1` (stereo unspecified) yielded a melting point of 149 to 151 °C.

The molecule `O=S(=O)(Cl)CCS(=O)(=O)c1ccc(F)cc1` displayed a melting point of 145 to 147 °C.

The molecule `CC(O)c1c(Cl)nc2ccccn12` (stereo unspecified) registered a melting point of 132 to 134 °C.

For `C=CCNC(=O)NC(C)(C)C(=O)O`, the melting point lay in the range of 125 to 127 °C.

On to `Cc1ccc(Nc2ncccc2N)cc1`, for which the melting point lay within 144 to 146 °C.

In the case of `CS(=O)(=O)CCC(NC(=O)c1ccccc1Cl)C(=O)O` (stereo unspecified), the melting point was 159 to 161 °C.

For `NNC(=O)C1Cc2ccccc2CN1Cc1ccccc1` (stereo unspecified), the melting point lay within 128 to 130 °C.

`COc1ccc(S(N)(=O)=O)cc1NC(=O)CCl` displayed a melting point of 169 to 171 °C.

The molecule `COC(=O)C(=O)CC(=O)c1cccnc1` returned a melting point of 113 to 115 °C.

For the molecule `COc1ccsc1C(=O)O`, the melting point lay in the range of 179 to 181 °C.

In turn, `O=[N+]([O-])c1ccc(C2NCCS2)cc1` (stereo unspecified) yielded a melting point of 124 to 126 °C.

For `COc1ccccc1C(=O)NC(=O)CCl`, the melting point fell in the range of 118 to 120 °C.

`Cc1nnnn1C(=Cc1ccccc1)C(=O)O` returned a melting point of 201 to 203 °C.

For `COc1ccc(C)c(N)c1`, the melting point is 43 to 46 °C.

In the case of `OC(CN1CCNCC1)c1ccccc1` (stereo unspecified), the melting point lay within 67 to 69 °C.

Turning to `O=C(O)CCc1ccncc1`, the melting point lay in the range of 209 to 211 °C.

For the molecule `CC(=O)N(c1ccc(C)cc1)c1nc(C=O)cs1`, the melting point is 166 to 168 °C.

Take `Clc1nnc(-c2ccccc2)n1C1CC1`: the melting point is 159 to 161 °C.

Molecule `NNc1nc2ccccc2[nH]1` returned a melting point of 80 to 82 °C.

In turn, `CCCN(C)S(N)(=O)=O` came in with a melting point of 32 to 34 °C.

The molecule `Nc1ccccc1CN1CCC(O)CC1` displayed a melting point of 112 to 114 °C.

Consider `O=C1C=CC(=O)N1c1cc([N+](=O)[O-])ccc1Cl`, for which the melting point was in the range of 73 to 75 °C.

Molecule `COC(=O)c1sc(-c2ccccc2Cl)cc1N` gave a melting point of 109 to 111 °C.

`NC(=O)NC(=O)C(Cl)c1ccccc1` (stereo unspecified) returned a melting point of 170 to 172 °C.

As for `Cc1cc(C(=O)O)nn1-c1cccc(C#N)c1`, the melting point lay in the range of 249 to 251 °C.

Consider `Cc1nc(-c2cccc(N)c2)oc1C`, for which the melting point was in the range of 104 to 106 °C.

In the case of `CCCCC(Br)C(=O)Nc1cc(C)on1` (stereo unspecified), the melting point fell in the range of 84 to 86 °C.

Molecule `COc1ccc(CCN)c(O)c1` gave a melting point of 98 to 100 °C.

Molecule `CCC(C)c1ccc(-c2csc(N)n2)cc1` (stereo unspecified) yielded a melting point of 77 to 79 °C.

Molecule `CC(C)CN1CCCC(C(=O)O)C1` (stereo unspecified) came in with a melting point of 108 to 110 °C.

The molecule `COc1ccc(S(=O)(=O)Cl)c(C)c1F` registered a melting point of 90 to 92 °C.

Molecule `N#Cc1ccc(C(=O)NNC(=O)CCl)cc1` yielded a melting point of 185 to 187 °C.

In turn, `O=C(Nc1cn[nH]c1)Oc1ccccc1` displayed a melting point of 179 to 181 °C.

The molecule `O=C(O)c1ccc(C(F)F)cc1` yielded a melting point of 205 to 207 °C.

Regarding `CC(C)n1c(C(=O)O)cc(Br)c1Br`, the melting point was 127 to 129 °C.

As to `O=C(O)c1cnns1`, the melting point fell in the range of 103 to 105 °C.

`COCc1cccc2sc(N)nc12` showed a melting point of 139 to 141 °C.

With `COc1ccc(NCCC(=O)O)cc1`, the melting point was in the range of 82 to 84 °C.

Take `CCCCC(NC(=O)C(C)NC(C)=O)C(=O)O` (stereo unspecified): the melting point was in the range of 143 to 145 °C.

For `CC(C)(C)OC(=O)Nc1cc2ccccc2cc1C(=O)O`, the melting point was in the range of 179 to 181 °C.

On to `CS(=O)(=O)NCCc1ccc(C(=O)CCl)s1`, for which the melting point was in the range of 110 to 112 °C.

Take `Nc1cc(-c2cccc(F)c2)no1`: the melting point is 103 to 105 °C.

Consider `CCCNc1c(N)n(Cc2ccccc2)c(=O)[nH]c1=O`, for which the melting point lay within 210 to 212 °C.

Regarding `O=C(O)C(=O)Nc1ccc(Br)cc1C(F)(F)F`, the melting point lay within 116 to 118 °C.

In the case of `CC(=O)CC(=O)Nc1ccccc1C(F)(F)F`, the melting point was in the range of 60 to 62 °C.

`Cc1sc2nc(C(C)Cl)[nH]c(=O)c2c1C` (stereo unspecified) showed a melting point of 215 to 217 °C.

Molecule `O=C(O)CSC1=NS(=O)(=O)c2ccccc21` registered a melting point of 213 to 215 °C.

`CC(=O)Nc1cccc2c1NCCC2` showed a melting point of 108 to 110 °C.

Molecule `Nc1cc(-c2ccc(Br)o2)no1` showed a melting point of 144 to 146 °C.

As to `COC(=O)C=Cn1c(=O)ccn2ncnc12`, the melting point is 239 to 241 °C.

Regarding `O=Cc1cccc(OCc2cccc(C(=O)O)c2)c1`, the melting point lay in the range of 122 to 124 °C.

On to `NS(=O)(=O)c1cnccn1`, for which the melting point lay within 166 to 168 °C.

In turn, `C=CC(=O)Nc1ccc(OCC)c(OC)c1` returned a melting point of 117 to 119 °C.

The molecule `CCC(C)Oc1cc(C(=O)O)ccn1` (stereo unspecified) displayed a melting point of 83 to 85 °C.

`CC1(C)CCc2[nH]c(=O)c(C(=O)O)cc2C1` registered a melting point of 242 to 244 °C.

Molecule `Nc1nccc(C(F)(F)F)n1` yielded a melting point of 174 to 178 °C.

With `CC(SCC(=O)Nc1ccc(Br)cc1)C(=O)O` (stereo unspecified), the melting point was 139 to 141 °C.

Consider `O=C(CCl)c1cnc(N2CCCCC2)s1`, for which the melting point was in the range of 118 to 120 °C.

`O=C(O)c1n[nH]c(=O)[nH]c1=O`: the melting point lay in the range of 224 to 226 °C.

On to `O=C(O)C1CCCCC1c1nc2ccccc2s1` (stereo unspecified), for which the melting point was in the range of 168 to 170 °C.

Turning to `O=c1cc(-c2ccccc2)c2cc(Cl)c(O)cc2o1`, the melting point is 260 to 262 °C.

`Fc1cc(CCl)c2c(c1)COC(c1ccccc1)O2` (stereo unspecified): the melting point lay within 61 to 65 °C.

Regarding `O=C(O)c1cccnc1SCc1cccc(Br)c1`, the melting point fell in the range of 186 to 188 °C.

`O=C(O)CN1CC(=O)NC1=O` displayed a melting point of 139 to 141 °C.

Take `Nc1cc(C(=O)O)ccc1I`: the melting point was 209 to 211 °C.

Molecule `Cc1cc(NC(=O)CCl)n(-c2ccc(F)cc2)n1` displayed a melting point of 128 to 130 °C.

`O=C(O)c1c(F)ccc(S(=O)(=O)NC2CC2)c1F` displayed a melting point of 134 to 136 °C.

Regarding `Nc1ccc(-n2cnc3ccccc32)cc1`, the melting point was in the range of 104 to 106 °C.

`Cc1ccc(CNC(=O)c2ccccc2NC(=O)CCl)cc1` showed a melting point of 150 to 152 °C.

In turn, `CC(C)Oc1ccc(S(N)(=O)=O)cc1` returned a melting point of 121 to 123 °C.

Turning to `Nc1nnc(SCc2cccs2)s1`, the melting point lay in the range of 141 to 143 °C.

Regarding `CC(C)COc1ccc(C(=O)O)cn1`, the melting point was 105 to 107 °C.

As for `C#CCNS(=O)(=O)c1cccc(C(=O)O)c1`, the melting point fell in the range of 168 to 172 °C.

The molecule `Cc1nc(N(C)C)sc1C(=O)O` came in with a melting point of 99 to 101 °C.

`CC(=O)c1sc(C(C)(C)C)nc1C` displayed a melting point of 66 to 68 °C.

`NC1CCN(c2cccc(Cl)c2)C1=O` (stereo unspecified) registered a melting point of 99 to 101 °C.

For the molecule `CC(Sc1ccc(Cl)cc1)C(=O)O` (stereo unspecified), the melting point fell in the range of 106 to 108 °C.

The molecule `CC(C)(C)OC(=O)NC(Cc1ccccc1)C(O)C(F)(F)F` (stereo unspecified) showed a melting point of 149 to 151 °C.

Molecule `O=C(O)C1CCCN1C(=O)NC1CCCCC1` (stereo unspecified) returned a melting point of 175 to 177 °C.

With `O=C(O)c1ccc2c(c1)C(=O)NS2(=O)=O`, the melting point was 279 to 281 °C.

`COCCCOc1ccc(C(=O)O)cc1` showed a melting point of 112 to 114 °C.

As for `O=C(Nc1nncs1)OCC(F)(F)F`, the melting point lay in the range of 213 to 215 °C.
